The results in this text go back to patent US5310757A, “3,3,5-trimethylcyclohexyl 2-methylpropionate derivatives, their method of preparation and therapeutic compositions in which they are present” (Panmedica, priority 1989, dated 1994).

The test system of assay [1] is hyperlipidaemia caused by TRITON 1339. In words: test for the hyperlipidaemia caused by TRITON 1339. The class given is in vivo. The following applies: rats, Triton test after oral administration for six days, 0.5 millimol per kilogram; for HDL cholesterol: Control 0.7 ± 0.1, Triton 0.8 ± 0.1; for Triglycerides: Control 1 ± 0.3, Triton 10 ± 7; for Total cholesterol: Control 2 ± 0.15, Triton 9 ± 3; for Total lipids: Control 3.5 ± 0.4, Triton 20 ± 10. On the procedure:
The Table below summarizes the results of the pharmacological studies carried out especially by means of the test for the hyperlipidaemia caused by TRITON 1339. The experimental protocol was that published by J. C. […] et al. (Gaz. Med. France, 3rd inter. coll. 1982, Dijon, 18-22). The tests are performed on groups of 7 rats weighing from 280 to 290 g. The Triton test is carried out after oral administration for six days at a rate of 0.5 millimol per kilogram of body weight. The following lipid parameters are measured: total cholesterol, triglycerides, total lipids and HDL cholesterol.

The subject of another assay is HMG-CoA red. The experiment in a line: HMG-CoA red. activity "ex vivo" in liver microsomes after chronic intraperitoneal administration to rats. Conditions: 50 mg/kg for 6 days; for Mevalonate formed: Control 17; for % inhibition: inhibition of HMG-CoA red. activity, Control 0. Further details: Mevalonate formed: unit not given here. On the procedure:
The inhibitory activity of the products according to the present invention was determined by the method of Kuroda et al. (Biochemica et Biophysica Acta, vol. 486, pp. 70-81 (1977)), which is a modification of the method of Shapiro et al. (Analytical Biochemistry, vol. 31, pp. 383-390 (1969)). […] The doses administered were 50 mg/kg for 6 days; six rats were used in each series; they are sacrificed without anaesthesia and the liver microsomes are isolated for the assay, which is performed according to the above-mentioned protocol.

Assay [2] has as its target T1, 3-hydroxy-3-methylglutaryl-CoA reductase (Rattus norvegicus, UniProt P51639).
T1 construct: from tissue
T1 sequence (P51639 1-887): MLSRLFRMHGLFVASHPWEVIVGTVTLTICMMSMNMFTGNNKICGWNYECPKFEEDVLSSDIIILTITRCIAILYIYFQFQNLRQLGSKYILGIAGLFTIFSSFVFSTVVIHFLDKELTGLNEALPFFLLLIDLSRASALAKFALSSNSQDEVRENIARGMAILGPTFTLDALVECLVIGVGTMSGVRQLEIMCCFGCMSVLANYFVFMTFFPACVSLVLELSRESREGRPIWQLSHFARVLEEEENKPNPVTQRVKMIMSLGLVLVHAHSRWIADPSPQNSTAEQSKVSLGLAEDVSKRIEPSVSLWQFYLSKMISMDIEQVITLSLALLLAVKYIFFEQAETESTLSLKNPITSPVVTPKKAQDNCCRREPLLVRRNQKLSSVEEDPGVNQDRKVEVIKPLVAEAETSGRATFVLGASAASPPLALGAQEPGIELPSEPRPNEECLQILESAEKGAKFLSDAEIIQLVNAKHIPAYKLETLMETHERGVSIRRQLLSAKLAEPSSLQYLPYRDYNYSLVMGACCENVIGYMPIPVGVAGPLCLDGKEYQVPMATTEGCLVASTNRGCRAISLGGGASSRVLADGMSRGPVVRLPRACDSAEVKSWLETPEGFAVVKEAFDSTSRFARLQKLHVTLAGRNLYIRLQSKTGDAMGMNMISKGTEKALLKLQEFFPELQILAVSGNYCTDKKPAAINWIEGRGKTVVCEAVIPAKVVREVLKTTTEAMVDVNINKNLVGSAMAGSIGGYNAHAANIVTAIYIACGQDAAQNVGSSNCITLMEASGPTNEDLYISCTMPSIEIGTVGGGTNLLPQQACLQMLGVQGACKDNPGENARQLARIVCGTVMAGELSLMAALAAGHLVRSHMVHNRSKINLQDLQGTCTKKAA
In words: inhibition of 3-hydroxy-3-methylglutaryl-CoA reductase activity (method of Kuroda et al.). The class given is biochemical. Conditions: concentration for 50% inhibition of 3-hydroxy-3-methylglutaryl-CoA reductase activity. The protocol: The biosynthesis of cholesterol in an isolated enzymatic system or in a cell culture from organs removed from experimental animals is inhibited by limiting the activity of the enzyme 3-hydroxy-3-methylglutaryl-CoA reductase.
The inhibitory activity of the products according to the present invention was determined by the method of Kuroda et al. (Biochemica et Biophysica Acta, vol. 486, pp. 70-81 (1977)), which is a modification of the method of Shapiro et al. (Analytical Biochemistry, vol. 31, pp. 383-390 (1969)). The results are summarized in Table II, where IC50 is the concentration of product in the experimental medium which is necessary to achieve a 50% inhibition of the 3-hydroxy-3-methylglutaryl-CoA reductase activity, expressed in nanomol.

In assay [1], `C[C@H]1C[C@H](OC(=O)C(C)(C)Oc2ccc(C(=O)c3ccc(Cl)cc3)cc2)CC(C)(C)C1` (relative stereo) [Example 1, (TRANS) 3,3,5-TRIMETHYLCYCLOHEXYL 2-(4-(4-CHLOROBENZOYL)PHENOXY)-2-METHYLPROPIONATE] showed an HDL cholesterol of 1.5 ± 0.4 mmol/L, a Triglycerides of 0.8 ± 0.1 mmol/L, a Total cholesterol of 3.5 ± 1.4 mmol/L and a Total lipids of 3.6 ± 0.5 g/L. In addition, in the assay on HMG-CoA red., the Mevalonate formed worked out at 4.44 and the % inhibition (as a rule, the change of the read-out against control, counted positive when it falls) is reported as 74%.
Regarding `Cc1ccc(C)c(OCCCC(C)(C)C(=O)O[C@H]2C[C@H](C)CC(C)(C)C2)c1` (relative stereo) [Example 6, (TRANS) 3,3,5-TRIMETHYLCYCLOHEXYL 2-(3-(2,5-DIMETHYLPHENOXY)PROPYL)-2-METHYLPROPIONATE], in assay [1], the HDL cholesterol stood at 0.9 ± 0.3 mmol/L, the Triglycerides stood at 1.7 ± 0.3 mmol/L, the Total cholesterol came out at 2.0 ± 0.2 mmol/L and the Total lipids stood at 8.0 ± 3 g/L. In addition, in the assay with HMG-CoA red., the Mevalonate formed is 6.01 and the “% inhibition” value is listed as 65%.
Regarding `C[C@@H]1C[C@H](OC(=O)C(C)(C)Oc2ccc(-c3ccccc3)cc2)CC(C)(C)C1` (relative stereo) [Example 8, (CIS) 3,3,5-TRIMETHYLCYCLOHEXYL 2-(4-PHENYLPHENOXY)-2-METHYLPROPIONATE], in assay [1], the HDL cholesterol was 1.1 ± 0.2 mmol/L, the Triglycerides was determined as 6.0 ± 4 mmol/L, the Total cholesterol was found to be 3.0 ± 0.2 mmol/L and the Total lipids was determined as 3.6 ± 0.2 g/L.
The corresponding values for `CCC(=O)c1ccc(OC(C)(C)C(=O)O[C@H]2C[C@H](C)CC(C)(C)C2)cc1` (relative stereo) [Example 9, (TRANS) 3,3,5-TRIMETHYLCYCLOHEXYL 2-(4-PROPIONYLPHENOXY)-2-METHYLPROPIONATE] are 2.0 ± 0.6 mmol/L, 1.6 ± 0.3 mmol/L, 2.5 ± 0.6 mmol/L and 5.0 ± 0.2 g/L.
As to `CCC(=O)c1ccc(OC(C)(C)C(=O)O[C@H]2C[C@@H](C)CC(C)(C)C2)cc1` (relative stereo) [Example 10, (CIS) 3,3,5-TRIMETHYLCYCLOHEXYL 2-(4-PROPIONYLPHENOXY)-2-METHYLPROPIONATE], in assay [2], half-maximal inhibition (IC50) was put at 37.6 nM.
`CC(=O)c1ccc(OC(C)(C)C(=O)O[C@H]2C[C@H](C)CC(C)(C)C2)c(Cl)c1` (relative stereo) [Example 11, (TRANS) 3,3,5-TRIMETHYLCYCLOHEXYL 2-(4-ACETYL-2-CHLOROPHENOXY)-2-METHYLPROPIONATE]: in assay [1], the HDL cholesterol was found to be 1.0 ± 0.1 mmol/L, the Triglycerides turned out to be 1.0 ± 0.1 mmol/L, the Total cholesterol is 1.8 ± 0.4 mmol/L and the Total lipids was determined as 11 ± 5 g/L.
In the case of `CC(=O)c1ccc(OC(C)(C)C(=O)O[C@H]2C[C@@H](C)CC(C)(C)C2)c(Cl)c1` (relative stereo) [Example 12, (CIS) 3,3,5-TRIMETHYLCYCLOHEXYL 2-(4-ACETYL-2-CHLOROPHENOXY)-2-METHYLPROPIONATE], the IC50 – broadly, the concentration that inhibits the measured activity by half – in assay [2] is 21.9 nM.
Still for that read-out and setting: then `CC(=O)c1cccc(OC(C)(C)C(=O)O[C@H]2C[C@H](C)CC(C)(C)C2)c1` (relative stereo) [Example 13, (TRANS) 3,3,5-TRIMETHYLCYCLOHEXYL 2-(3-ACETYLPHENOXY)-2-METHYLPROPIONATE], with 35.7 nM.
In assay [1], `CC(=O)c1cccc(OC(C)(C)C(=O)O[C@H]2C[C@@H](C)CC(C)(C)C2)c1` (relative stereo) [Example 14, (CIS) 3,3,5-TRIMETHYLCYCLOHEXYL 2-(3-ACETYLPHENOXY)-2-METHYLPROPIONATE] came in with an HDL cholesterol of 2.1 ± 0.1 mmol/L, a Triglycerides of 6.0 ± 3.0 mmol/L, a Total cholesterol of 3.0 ± 0.3 mmol/L and a Total lipids of 4.8 ± 0.6 g/L.
In assay [1], `CC(=O)c1ccc(OC(C)(C)C(=O)O[C@@H]2C[C@@H](C)CC(C)(C)C2)cc1` (relative stereo) [Example 15, (TRAMS) 3,3,5-TRIMETHYLCYCLOHEXYL 2-(4-ACETYLPHENOXY)-2-METHYLPROPIONATE] displayed an HDL cholesterol of 1.7 ± 0.1 mmol/L, a Triglycerides of 1.7 ± 1.2 mmol/L, a Total cholesterol of 2.8 ± 0.2 mmol/L and a Total lipids of 3.0 ± 0.3 g/L.
Take `CC(=O)c1ccc(OC(C)(C)C(=O)O[C@H]2C[C@@H](C)CC(C)(C)C2)cc1` (relative stereo) [Example 16, (CIS) 3,3,5-TRIMETHYLCYCLOHEXYL 2-(4-ACETYLPHENOXY)-2-METHYLPROPIONATE]: in assay [2], the IC50 came out at 45.9 nM.
`C[C@H]1C[C@H](OC(=O)C(C)(C)Oc2ccc(C(=O)Cc3ccccc3)cc2)CC(C)(C)C1` (relative stereo) [Example 17, (TRANS) 3,3,5-TRIMETHYLCYCLOHEXYL 2-(4-PHENYLACETYLPHENOXY)-2-METHYLPROPIONATE]: in the assay on HMG-CoA red., the Mevalonate formed is recorded as 8.66 and the “% inhibition” value amounted to 50%.
Compound `C[C@@H]1C[C@H](OC(=O)C(C)(C)Oc2ccc(C(=O)Cc3ccccc3)cc2)CC(C)(C)C1` (relative stereo) [Example 18, (CIS) 3,3,5-TRIMETHYLCYCLOHEXYL 2-(4-PHENYLACETYLPHENOXY)-2-METHYLPROPIONATE] showed an IC50 in assay [2] of 32.9 nM.
For `C[C@H]1C[C@H](OC(=O)C(C)(C)CCCCOc2ccccc2)CC(C)(C)C1` (relative stereo) [Example 19, (TRANS) 3,3,5-TRIMETHYLCYCLOHEXYL 2-(4-PHENOXYBUTYL)- 2-METHYLPROPIONATE], in the assay with HMG-CoA red., the Mevalonate formed turned out to be 5.2 and the “% inhibition” value is 70%.
As for `C[C@@H]1C[C@H](OC(=O)C(C)(C)CCCCOc2ccccc2)CC(C)(C)C1` (relative stereo) [Example 20, (CIS) 3,3,5-TRIMETHYLCYCLOHEXYL 2-(4-PHENOXYBUTYL)-2-METHYLPROPIONATE], half-maximal inhibition in assay [2] (IC50) required 40.5 nM.
Consider `Cc1ccc(OCCCCC(C)(C)C(=O)O[C@H]2C[C@@H](C)CC(C)(C)C2)c(C)c1` (relative stereo) [Example 21, (CIS) 3,3,5-TRIMETHYLCYCLOHEXYL 2-(4-(2,4-DIMETHYLPHENOXY)BUTYL)-2-METHYLPROPIONATE], for which, in the assay with HMG-CoA red., the Mevalonate formed is given as 3.8 and the “% inhibition” value is 78%.
Regarding `Cc1cc(C)cc(OCCCCC(C)(C)C(=O)O[C@H]2C[C@@H](C)CC(C)(C)C2)c1` (relative stereo) [Example 22, (CIS) 3,3,5-TRIMETHYLCYCLOHEXYL 2-(4-(3,5-DIMETHYLPHENOXY)BUTYL)-2-METHYLPROPIONATE], the IC50 in assay [2] is 30.2 nM.
`CC(C)OC(=O)C(C)(C)Oc1ccc(C(=O)c2ccc(Cl)cc2)cc1` [Fenofibrate, isopropyl 4-(4-chlorobenzoyl)phenoxyisobutyrate, reference compound] came in with a Mevalonate formed with HMG-CoA red. of 4.16.
